The text below walks through data of patent publication US12612411B1, “Imidazopyrazine derivatives, process for preparation thereof, and their uses as luciferins” (INSTITUT PASTEUR, priority 2017, dated 2026).

Data set [1] concerns the target T1, nanoKAZ luciferase (Oplophorus gracilirostris, UniProt Q9GV45, A31E/A60N/A81I/F95D/I117V/K70R/L54V/L99Q/M102K/N193R/P142E/Q151K/Q38R/Q45L/V71I/Y165I).
T1 construct: luciferase catalytic domain (nanoKAZ, 19 kDa) from the Oplophorus-derived luciferase; host or cells: cell-free: 1-Step Human Coupled IVT Kit, pT7CFE1-based vector
The experiment in a line: In vitro bioluminescence screening of imidazo[1,2-a]pyrazin-3(7H)-ones with nanoKAZ expressed in vitro (96-well luminometer, 2 h kinetic). The conditions noted are these: furimazine = 1. Format: biochemical. The procedure: General protocol for the generation of solutions of imidazo[1,2-a]pyrazin-3(7H)-one Q by acidic hydrolysis of imidazo[1,2-a]pyrazin-3-yl acetate derivatives P. The considered acetate P (1 mg) was dissolved in DMSO (0.2 mL) and then diluted by adding a solution of acidic ethanol (0.3 ml) made from the addition of 37% hydrochloric acid (100 μl) on 100% ethanol (12 mL). This 0.5 mL solution was incubated at 50° C. for 2 hours to give a stock solution which was then stored at −80° C. […] Nota: these conditions are only adapted to the hydrolysis of the protecting group (as defined above) of the oxygen on position 2 of the imidazo[1,2-a]pyrazine ring system and not to the hydrolysis of any additional acetyl groups eventually present elsewhere on the substrate of this reaction.
The representative bioluminescence curves shown in the FIG. 2 provided an assessment for furimazine (Q-1), 8-benzyl-2-(furan-2-ylmethyl)-6-(4-hydroxyphenyl)imidazo[1,2-a]pyrazin-3 (7/1)-one (Q-80), 8-(2-fluorobenzyl)-2-(furan-2-ylmethyl)-6-phenylimidazo[1,2-a]pyrazin-3(7H)-one (Q-84), and 8-(2-fluorobenzyl)-2-((5-methylfuran-2-yl)methyl)-6-phenylimidazo[1,2-a]pyrazin-3(7H)-one (Q-85) was obtained using a luciferase expressed in vitro as described in the following. The nanoKAZ DNA template was cloned into Thermo Scientific pT7CFE1-based vector and nanoKAZ was expressed using ThermoFisher Scientific 1-Step Human Coupled IVT Kit—DNA (ref. 88881) according to the manufacturer instructions. The resulting reaction mix was diluted 400 times in buffer (DPBS (Gibco)+0.1% (v/v) Tween 20) and conserved at −80° C. The screening of the imidazo[1,2-a]pyrazin-3(7H)-ones was performed in 96 well plates using 50 μL/well of a 1/20 dilution in DPBS (Gibco)+0.1% (v/v) Tween 20 of the nanoKAZ solution.
To illustrate the bioluminescence properties improvement achieved for many of the imidazo[1,2-a]pyrazin-3(7H)-ones described here, four values are provided in Table 1: maximum intensity (V1), signal half-life (V2), area under the curve for ten minutes (V3), and area under the curve for two hours (V4), normalized using furimazine (Q-1) as a reference.
The bioluminescence properties of the tested compounds are considered to be improved when at least one of the values V1-V4 is above 1, and when none of the V1-V4 values is 0.05 or below.
By following the hydrolysis protocol described above, the following imidazo[1,2-a]pyrazin-3(7H)-ones luciferins Q were made in situ from the corresponding O-protected imidazo[1,2-a]pyrazines P and evaluated for their bioluminescence properties (maximum intensity (V1), signal half-life (V2), area under the curve for […], normalized using furimazine (Q-1) as a reference): […]

The conditions of data set [2]: cited from earlier work.
Setting [3] is: second table, luciferins made in situ from O-protected P.

T1 sequence (Q9GV45 other isoform, or with tags, fused parts or gaps with the stated changes): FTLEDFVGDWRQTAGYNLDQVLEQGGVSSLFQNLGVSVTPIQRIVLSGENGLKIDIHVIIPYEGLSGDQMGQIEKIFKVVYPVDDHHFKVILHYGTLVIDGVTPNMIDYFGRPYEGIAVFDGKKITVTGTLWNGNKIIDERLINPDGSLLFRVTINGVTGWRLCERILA

In the case of `O=c1c(Cc2ccc(O)cc2)nc2c(Cc3ccccc3)[nH]c(-c3ccc(O)cc3)cn1-2` [Q-86, 8-benzyl-2-(4-hydroxybenzyl)-6-(4-hydroxyphenyl)imidazo[1,2-a]pyrazin-3(7H)-one, reference compound], in data set [1] (Table 1), the “V1: maximum intensity, normalized using furimazine (Q-1) as a reference” value (from here on “V1: maximum intensity, normalized”) was determined as 0.09; the “V3: area under the curve for ten minutes, normalized using furimazine (Q-1) as a reference” value is given as 0.08; the “V4: area under the curve for two hours, normalized using furimazine (Q-1) as a reference” value turned out to be 0.07. Besides, in data set [2] (commercially available luciferins), the storage stability result is listed as “very weak storage stability”. For the same compound, the “permitted storage time at 4° C.” value in data set [2] (recommended storage conditions) is “up to two weeks only”.
Regarding `Cc1cc(Cc2nc3c(Cc4cccc(F)c4F)[nH]c(-c4ccccc4)cn-3c2=O)oc1C` [Q-124, 8-(2,3-difluorobenzyl)-2-((4,5-dimethylfuran-2-yl)methyl)-6-phenylimidazo[1,2-a]pyrazin-3(7H)-one], in data set [1] (second table), the “V3: area under the curve for 2 hours, normalized using furimazine (Q-1) as a reference” value amounted to 2.29 and the “V4: area under the curve for ten minutes, normalized using furimazine (Q-1) as a reference” value came to 1.03. The “V1: maximum intensity, normalized” value in data set [1] (setting [3]) worked out at 2.43.
For `CCc1ccc(Cc2nc3c(Cc4cccc(F)c4F)[nH]c(-c4ccccc4)cn-3c2=O)o1` [Q-127, 8-(2,3-difluorobenzyl)-2-((5-ethylfuran-2-yl)methyl)-6-phenylimidazo[1,2-a]pyrazin-3(7H)-one], in data set [1] (second table), the “V3: area under the curve for 2 hours, normalized using furimazine (Q-1) as a reference” value worked out at 2.69 and the “V4: area under the curve for ten minutes, normalized using furimazine (Q-1) as a reference” value was determined as 1.55. In data set [1] (setting [3]), the “V1: maximum intensity, normalized” value is reported as 2.81.
For `CCc1ccc(Cc2nc3c(Cc4c(F)cccc4F)[nH]c(-c4ccccc4)cn-3c2=O)o1` [Q-129, 8-(2,6-difluorobenzyl)-2-((5-ethylfuran-2-yl)methyl)-6-phenylimidazo[1,2-a]pyrazin-3(7H)-one] the same measures were 1.37, 1.32 and 1.41.
For `Cc1cc(Cc2nc3c(Cc4ccccc4F)[nH]c(-c4ccccc4)cn-3c2=O)oc1C` [Q-131, 2-((4,5-dimethylfuran-2-yl)methyl)-8-(2-fluorobenzyl)-6-phenylimidazo[1,2-a]pyrazin-3(7H)-one] the same measures were 1.9, 1.02 and 2.01.
The matching figures for `Cc1cc(Cc2nc3c(Cc4cccc(F)c4)[nH]c(-c4ccccc4)cn-3c2=O)oc1C` [Q-132, 2-((4,5-dimethylfuran-2-yl)methyl)-8-(3-fluorobenzyl)-6-phenylimidazo[1,2-a]pyrazin-3(7H)-one]: 1.44, 1 and 1.5.
In the case of `CCCc1ccc(Cc2nc3c(Cc4ccccc4)[nH]c(-c4ccccc4)cn-3c2=O)o1` [Q-133, 8-benzyl-6-phenyl-2-((5-propylfuran-2-yl)methyl)imidazo[1,2-a]pyrazin-3(7H)-one], in data set [1] (second table), the “V3: area under the curve for 2 hours, normalized using furimazine (Q-1) as a reference” value was 1.23 and the “V4: area under the curve for ten minutes, normalized using furimazine (Q-1) as a reference” value was 1.33. The “V1: maximum intensity, normalized” value in data set [1] (setting [3]) came out at 1.26.
The matching figures for `CCc1cc(Cc2nc3c(Cc4cccc(F)c4F)[nH]c(-c4ccccc4)cn-3c2=O)oc1C` [Q-135, 8-(2,3-difluorobenzyl)-2-((4-ethyl-5-methylfuran-2-yl)methyl)-6-phenylimidazo[1,2-a]pyrazin-3(7H)-one]: 0.51, 1.19 and 1.26.
As for `CCc1oc(Cc2nc3c(Cc4cccc(F)c4F)[nH]c(-c4ccccc4)cn-3c2=O)cc1C` [Q-143, 8-(2,3-difluorobenzyl)-2-((5-ethyl-4-methylfuran-2-yl)methyl)-6-phenylimidazo[1,2-a]pyrazin-3(7H)-one], in data set [1] (second table), the “V3: area under the curve for 2 hours, normalized using furimazine (Q-1) as a reference” value turned out to be 0.39 and the “V4: area under the curve for ten minutes, normalized using furimazine (Q-1) as a reference” value worked out at 1.34. Moreover, the “V1: maximum intensity, normalized” value in data set [1] (setting [3]) was 1.43.
The matching figures for `O=c1c(Cc2ccco2)nc2c(Cc3ccccc3)[nH]c(-c3cccc(O)c3)cn1-2` [Q-149, 8-benzyl-2-(furan-2-ylmethyl)-6-(3-hydroxyphenyl)imidazo[1,2-a]pyrazin-3(7H)-one]: 0.85, 1.05 and 1.12.
